The values that follow come from PubChem BioAssay (NCI).

Some test systems named below: SF-539 CNS; SK-MEL-5 melanoma; UACC-257 melanoma; RXF 393 renal; MCF7 breast; M14 melanoma; K-562 leukemia; NCI-H23 lung; HS 578T breast; SK-MEL-2 melanoma; 786-0 renal; SW-620 colon; HOP-92 NSCLC; DU-145 prostate; HOP-62 NSCLC; NCI/ADR-RES ovarian; COLO 205 colon; SN12C renal; HL-60(TB) leukemia; LOX IMVI melanoma.
Common to all, as to assay: inhibition of tumour cell growth, NCI panel, 48 h

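These data come from cells grown in 96-well plates and exposed to compound for 48 hours at five concentrations. The concentration for full growth arrest is given as TGI.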 Where a SMILES comes first, the peptide text is derived from it. [ ]: non-standard residue; d: D form. The star is where a group is joined. ξ: configuration not given here. dThr(3ξ) = CC(O)[C@@H](N)C(=O)O; dNMeL = CN[C@H](CC(C)C)C(=O)O; OBn = c1ccc(CO*)cc1; ξLac = CC(O)C(=O)O Where only a bound is given, the exact number is not on record here.

`Cn1c(=O)[nH]c2[nH]c3ccccc3c2c1=O`: the TGI in the assay with SF-539 CNS, in the assay on SK-MEL-5 melanoma, in the assay with UACC-257 melanoma, in the assay with RXF 393 renal, with MCF7 breast and in the assay with M14 melanoma was above 100 µM each time. The TGI in the assay on K-562 leukemia, with NCI-H23 lung, in the assay with HS 578T breast, in the assay with SK-MEL-2 melanoma, with 786-0 renal and in the assay on SW-620 colon was above 100 µM in each case. Further, the TGI with HOP-92 NSCLC, in the assay on DU-145 prostate, in the assay with HOP-62 NSCLC, with NCI/ADR-RES ovarian, in the assay with COLO 205 colon and in the assay on SN12C renal was above 100 µM each time. Besides, the TGI in the assay on HL-60(TB) leukemia and in the assay on LOX IMVI melanoma was above 100 µM throughout.
`COC(=O)[C@@H]1C[C@H]([Se]c2ccccc2)CN1S(=O)(=O)c1ccc(C)cc1`: the TGI with SF-539 CNS, in the assay on SK-MEL-5 melanoma, in the assay on UACC-257 melanoma, in the assay on RXF 393 renal, in the assay on MCF7 breast and in the assay on M14 melanoma was above 100 µM each time. In addition, the TGI in the assay with K-562 leukemia, in the assay with NCI-H23 lung, in the assay with HS 578T breast, in the assay with SK-MEL-2 melanoma, in the assay with 786-0 renal and in the assay with SW-620 colon was above 100 µM throughout. For the same compound, the TGI in the assay on HOP-92 NSCLC, in the assay on DU-145 prostate, with HOP-62 NSCLC, in the assay with NCI/ADR-RES ovarian, in the assay with COLO 205 colon and in the assay with SN12C renal was above 100 µM each time. Moreover, the TGI in the assay with HL-60(TB) leukemia and with LOX IMVI melanoma was above 100 µM throughout.
As for `CC(=O)OC(C)[C@@H](NC(=O)[C@@H](CC(C)C)N(C)C(=O)[C@@H]1CCCN1C(=O)C(C)O)C(=O)OCc1ccccc1` (some centres undefined) (H-[ξLac]P[dNMeL][dThr(3ξ)](Ac)-OBn), the TGI in the assay on SF-539 CNS, with SK-MEL-5 melanoma, in the assay on UACC-257 melanoma, in the assay with RXF 393 renal, with MCF7 breast and in the assay on M14 melanoma was above 100 µM throughout. The TGI in the assay with K-562 leukemia, with NCI-H23 lung, in the assay with HS 578T breast, in the assay with SK-MEL-2 melanoma, in the assay with 786-0 renal and with SW-620 colon was above 100 µM in each case. The TGI with HOP-92 NSCLC, in the assay with DU-145 prostate, with HOP-62 NSCLC, in the assay with NCI/ADR-RES ovarian, in the assay with COLO 205 colon and in the assay on SN12C renal was above 100 µM in each case. Besides, the TGI with HL-60(TB) leukemia and in the assay on LOX IMVI melanoma was above 100 µM in each case.
For the compound `C=C1C[C@@H](O)[C@@H](Br)C(C)(C)[C@]12CCC(C)(Cl)C(Br)C2` (some centres undefined), the TGI with SF-539 CNS was 32.3 µM; with SK-MEL-5 melanoma, 23.4 µM; in the assay on UACC-257 melanoma, above 70.7 µM; in the assay with RXF 393 renal, above 76.1 µM; in the assay on MCF7 breast, above 79.3 µM; in the assay with M14 melanoma, above 100 µM. Besides, the TGI was above 100 µM in the assay on K-562 leukemia; above 74.9 µM in the assay on NCI-H23 lung; above 100 µM in the assay on HS 578T breast; 32.3 µM with SK-MEL-2 melanoma; above 78.2 µM in the assay on 786-0 renal; above 100 µM with SW-620 colon. Besides, the TGI is above 73.6 µM in the assay on HOP-92 NSCLC; above 100 µM in the assay with DU-145 prostate; above 65.2 µM in the assay on HOP-62 NSCLC; 98 µM in the assay with NCI/ADR-RES ovarian; above 33.7 µM in the assay on COLO 205 colon; 36 µM in the assay with SN12C renal. Further, the TGI with HL-60(TB) leukemia came to 80.8 µM; in the assay with LOX IMVI melanoma, 49.5 µM.
`COC1=NC(NC2OCC(O)C(O)C2O)=C(NC(C)=O)CN1C` (centres undefined): the TGI with SF-539 CNS, in the assay on SK-MEL-5 melanoma, with RXF 393 renal, with MCF7 breast, with M14 melanoma and with K-562 leukemia was above 100 µM in each case. Besides, the TGI in the assay on NCI-H23 lung, with HS 578T breast, with SK-MEL-2 melanoma, with 786-0 renal, in the assay on SW-620 colon and with HOP-92 NSCLC was above 100 µM in each case. In addition, the TGI in the assay on DU-145 prostate, in the assay on NCI/ADR-RES ovarian, in the assay on COLO 205 colon, in the assay with HL-60(TB) leukemia and in the assay with LOX IMVI melanoma was above 100 µM in each case.
`c1ccc(C2C3=C(CCCC3)Nc3nc4cc5ccccc5cc4n32)cc1` (centres undefined): the TGI in the assay on SF-539 CNS, in the assay with SK-MEL-5 melanoma, in the assay on UACC-257 melanoma, in the assay with RXF 393 renal, in the assay on MCF7 breast and in the assay with M14 melanoma was above 100 µM in each case. Further, the TGI with K-562 leukemia, in the assay on NCI-H23 lung, with HS 578T breast, in the assay on SK-MEL-2 melanoma, in the assay on 786-0 renal and with SW-620 colon was above 100 µM in each case. For the same compound, the TGI in the assay with HOP-92 NSCLC, with DU-145 prostate, in the assay with NCI/ADR-RES ovarian, with COLO 205 colon, in the assay on SN12C renal and in the assay on HL-60(TB) leukemia was above 100 µM throughout. Also, the TGI in the assay on LOX IMVI melanoma was above 100 µM.
Consider `OC(c1cccnc1)C(F)(F)c1nc2ccccc2o1` (centres undefined), for which the TGI with SF-539 CNS, with SK-MEL-5 melanoma, with UACC-257 melanoma, in the assay on RXF 393 renal, in the assay on MCF7 breast and in the assay on K-562 leukemia was above 100 µM each time. In addition, the TGI in the assay with NCI-H23 lung, in the assay on HS 578T breast, with SK-MEL-2 melanoma, in the assay on 786-0 renal, in the assay with SW-620 colon and in the assay with HOP-92 NSCLC was above 100 µM in each case. For the same compound, the TGI with DU-145 prostate, with HOP-62 NSCLC, in the assay with NCI/ADR-RES ovarian, with COLO 205 colon, in the assay with HL-60(TB) leukemia and with LOX IMVI melanoma was above 100 µM each time.
